Data as given in patent EP2014281A1, “Use of inhibitors of sirtuins and/or ampk for the preparation of a medicament for the treatment of polyalanine diseases” (INSTITUT NATIONAL DE LA SANTE ET DE LA RECHERCHE MEDICALE …, priority 2007, dated 2009).

Key:
[1] = test system: C. elegans transgenics expressing human PABPN1 with 10 or 13 Alas; assay: Muscle nuclei loss (MNL) drug assay in transgenic nematodes, counting GFP positive muscle cell nuclei; type: in vivo; conditions: for muscle nuclei loss (MNL) in controls: PABPN1-A10 / control animals; for genetic dependence of the effect on MNL: PABPN1-A13 animals with null mutation of sir-2.1 (ok434), daf-16 (mu86) or aak-2 (ok524); for muscle nuclei loss (MNL) caused by PABPN1-A13 expression: PABPN1-A13 animals, 65 hours at 20°C in liquid culture, maximal achievable rescue 28 %
Method: Analysis of muscle cells. Muscle cells in transgenic hermaphrodites were examined for loss of nuclei through counting GFP positive cells. Percent rescue was calculated as ((test - control)/control*100). Muscle cells in transgenic hermaphrodites were examined for PABPN1 expression through fluorescent microscopy. Whole animals were permeabilized and stained with the PABPN1 antiserum VEADa-14 (Centre de Recherche du CHUM, Montreal; 1:50), and fluorescent microscopy was conducted on a Zeiss microscope (Axioplan Imaging II). Observations of the structure of body wall muscles in young adult transgenics after Phalloidin-Rhodamin (FluoProbes) staining were performed as previously described^51. ANOVA tests and Tukey's Multiple Comparison Test were used for statistics.
(§1) Drug assays. Synchronized populations of L1 larvae expressing GFP and PABPN1 with 10 or 13 Alas were obtained by hypochlorite extraction. To test for muscle nuclei loss, animals were grown in 96-well microtiter plates in 50 µl liquid culture medium with sodium butyrate, resveratrol, sirtinol or splitomicin for 65 hours at 20°C, transferred to agarose pads on slides, and scored for cell nuclei loss at 10X-63X using a Zeiss fluorescence microscope (Axioplan Imaging II). 60 worms were scored per point and three independent assays performed. To test for motility, the synchronized L1 larvae were grown on NGM plates containing drugs until they became 1-5 day old adults. Animals were transferred to new plates every other day to keep them separate from progeny, then transferred to confluent OP-50.1 bacteria test plates and assessed for the number of whole body bends as described above (see Motility assays).

[2] = test system: C. elegans transgenics expressing human PABPN1 with 10 or 13 Alas; assay: Motility drug assay, number of whole body bends; type: in vivo; conditions: for genetic dependence of the effect on abnormal motility: PABPN1-A13 animals with null mutation of sir-2.1 (ok434), daf-16 (mu86) or aak-2 (ok524); for abnormal motility (frequency of body bends) produced by mutant PABPN1: PABPN1-A13 animals, sirtinol and splitomicin at day 5, resveratrol at day 3 of adulthood; for motility in controls: PABPN1-A10 / control animals
Method: Motility assays. 1-5 day old adult hermaphrodites were laid on confluent OP-50-1. The animals were then scored immediately for whole body bends for a duration of 20 seconds as previously described^23, or photos of the tracks were taken using a 2,5X objective on a Zeiss microscope and their amplitudes measured using the Meta View software. 100 animals were scored per experiment and three independent assays performed. Percent rescue of the body bends phenotype was calculated as ((control - test)/control*100) and percent rescue of the sinusoid wave phenotype as ((test - control)/control*100). ANOVA tests and Tukey's Multiple Comparison Tests were used for statistics.
as §1

[3] = test system: COS-7 cells overexpressing GFP-PABPN1 fusion proteins with 0, 10, or 17 Alas; assay: Cell survival by live microscopy of GFP positive cells; type: cell-based; conditions: day 5; 0.5 µM resveratrol, 2.5 µM sirtinol
Method: (§2) Cell culture and transfection. Twenty-four hours before transfection, COS-7 cells were seeded in Dulbeco's modified Eagle's medium (DMEM) containing 10% fetal calf serum at a concentration of 2 x 10^5 cells per well in 12-well plates suited for the automated live microscopy. The cells were transfected with plasmid DNA (1 µg) pre-complexed with the Plus reagent and diluted in Lipofectamine reagent according to the manufacturer's instructions. To check the protein expression before and after the drug treatment, parallel plates were prepared for Western blotting.
(§3) Drug treatment. Resveratrol and Sirtinol were dissolved in DMSO. In the initial cell treatment experiments, we performed dose-response experiments, using non-transfected cells, to define the most appropriate doses to be used for the drugs. […] The drugs or vehicle as a control were applied on transfected cells 24 h post-transfection. Cells (in the 12-well plate) were then incubated for 24 h before analysis using a Leica automated microscope stage.
Assessment of cell survival. Cell survival was assessed using live microscopy as previously described^12. Briefly, 12-well plates containing transfected cells treated or not treated with drugs were placed on a live stage microscope equipped with a digital camera, CO2 incubation chamber, and a motorized X-Y-axis stage and connected to the Openlab software (Improvision). The microscopic robotic stage allows parallel tracking of multiple fields, both within a single well and in multiple wells. […] The system was set to memorize three different fields of cells (from each separate well) and control the stage return to the same position at pre-fixed intervals. The microscope allowed us to return back to the same point and count the same cells in the field. Cell survival was monitored every 24 h for five consecutive days, with Day 1 corresponding to 24 h post-transfection before the drug treatment. On average, 150 cells per field per construct were counted. Cell viability was assayed by analysis of GFP positive cells. The average of cell survival of each group of cells was scored for the three different chosen fields and percent rescue calculated as ((test - control)/control*100). Three independent experiments were performed. ANOVA tests and Tukey's Multiple Comparison Test were used for statistics.

non-transfected cells = assay: Dose-response experiments for cell toxicity; type: cell-based; conditions: five days, 0.5 µM resveratrol, 2.5 µM sirtinol
Method: as §3

[4] = test system: COS-7 cells transfected with normal (10 Alas) and mutant (17 Alas) PABPN1; assay: Histone acetylation analysis by western blot; type: cell-based; conditions: COS-7 cells expressing normal or mutant PABPN1, 500 µM or 5 mM for the last 24h
Method: as §2
Histone acetylation analysis. COS-7 cells transfected with normal (10 Alas) and mutant (17 Alas) PABPN1 cDNAs were plated for 48h and treated for the last 24h with 500 µM or 5 mM sodium butyrate. Controls included non-butyrate-treated cells. Cells were lysed in 10 mM Tris, 50 mM sodium bisulfite, 1% triton X-100, 10 mM magnesium chloride, 8.6% sucrose, pH 6.5 and a cocktail of proteases inhibitors for 10 min. Proteins were extracted under acidic conditions as described^53. Ten micrograms of whole cell extract were analysed by western blot. […] Signals were quantified using NIH IMAGE 1.62 and t tests used for statistical analysis.

## Oc1ccc(C=Cc2cc(O)cc(O)c2)cc1 [resveratrol]
[1]
  muscle nuclei loss (MNL) in controls: no effect in PABPN1-A10 animals
  genetic dependence of the effect on MNL: mediated by sir-2.1 and aak-2
  muscle nuclei loss (MNL) caused by PABPN1-A13 expression: enhanced MNL
[2]
  genetic dependence of the effect on abnormal motility: daf-16 independent and sir-2.1 and aak-2 dependent
  abnormal motility (frequency of body bends) produced by mutant PABPN1: enhancement of abnormal motility
[3]
  cell survival in cells overexpressing GFP-PABPN1 with 0 and 10 Alas: no effects
  cell survival in mutant PABPN1-A17 cells: slightly decreased cell survival
non-transfected cells
  cell toxicity: did not cause cell toxicity

## CC(NC(=O)c1ccccc1/N=C/c1c(O)ccc2ccccc12)c1ccccc1 (stereo not shown) [sirtinol, 2-[(2-Hydroxynaphthalen-1-yl-methylene)amino]-N-(1-phenethyl)benzamide]
[1]
  genetic dependence of the effect on MNL: dependent on sir-2.1, daf-16 but not aak-2
  muscle nuclei loss (MNL) caused by PABPN1-A13 expression: dose-dependent rescue of MNL
[2]
  motility in controls: no effect detected
  genetic dependence of the effect on abnormal motility: dependent on sir-2.1 and daf-16
  abnormal motility (frequency of body bends) produced by mutant PABPN1: rescued abnormal motility
[3]
  cell survival in cells overexpressing GFP-PABPN1 with 0 and 10 Alas: no effects
  cell survival in mutant PABPN1-A17 cells: strongly enhanced cell survival

## O=C1CCc2c(ccc3ccccc23)O1 [splitomicin, 1,2-Dihydro-3H-naphtho[2,1-b]pyran-3-one]
[1]
  muscle nuclei loss (MNL) in controls: no effect in controls
  muscle nuclei loss (MNL) caused by PABPN1-A13 expression: rescued the MNL
[2]
  motility in controls: no effect in controls
  abnormal motility (frequency of body bends) produced by mutant PABPN1: rescued the MNL and abnormal motility

## CCCC(=O)[O-].[Na+] [sodium butyrate]
[1]
  muscle nuclei loss (MNL) caused by PABPN1-A13 expression: strong (the maximal achievable rescue is 28 %) rescue
[4]
  level of acetylation of histone H3: increased
  level of acetylation of histone H4: increased
